Reference: patent publication US7666639B2, “Plant deoxyribonucleoside kinase enzymes and their use” (priority 2002, dated 2010)

Key:
[1] = tested on: breast MCF-7 cells, parental; assay: Cell proliferation assay - cytotoxicity (XTT), MCF-7 parental; type: cell-based; conditions: Homo sapiens, MCF7, 96-120 hours of drug exposure
Protocol: (§1) Human breast MCF-7 (ATCC HTB-22) and Glioblastoma U-118-MG (ATCC HTB-15) cancer cells were purchased from the American Type Culture Collection. Cells were cultured in RPMI, E-MEM or D-MEM (Cambrex, Bio Whittaker Cat. No. 12-115-F, 12-611 and 12-741-F) with 10% (v/v) Australian originated fetal calf serum (Cambrex, Bio Whittaker Cat. No. 12-611) and 1 ml/l of Gentamicin (Cambrex, Bio Whittaker Cat. No. 17-518). Cells were grown at 37° C. in a humidified incubator with a gas phase of 5% CO2.
(§2) Cells were plated at densities range of 1.500-3.500 cells/well in 96-well plates coated with Poly-L-lysine (Sigma Cat. No. P6282) Gemcitabine (obtained from Orifarm A/S—DK) was added after 24 hours of incubation at 37° C., 5% CO2, and the medium containing the nucleoside analog. Each experiment was performed in four replicates. Cell survival was assayed after 96-120 hours of drug exposure, by XTT cell proliferation kit (X) kit II, Roche Cat. No. 1 465 015). […] The IC50 value of the investigated drug/compound was calculated as the mean of these experiments using SigmaPlot®) (SPSS Science, Dyrberg Traiding—DK).
(§3) The sensitivity of the untransduced cells, and of the cells transduced with either the retroviral vector alone ore the vector containing plant kinases for Gemcitabine was determined.
(§4) The cytotoxicity (IC50 value) was determined after 96-120 hours of drug exposure.

[2] = tested on: KY895 cells transformed with pGEX-2T-HSV-TK; assay: LD100 for growth of transformed KY895 on nucleoside analog plates, pGEX-2T-HSV-TK; type: cell-based, E. coli; conditions: transformant pGEX-2T-HSV-TK; M9 plates, 24 hours at 37° C.
Protocol: (§5) Deoxyribonucleoside kinases are of interest as suicide-genes to be used in gene-mediated therapy of cancer or viral infections. In this example the potential of the plant kinases of the invention to convert different nucleoside analogs are compared to that of the human Herpes simplex virus type 1 thymidine kinase (HSV1-TK) in a bacterial test system.
(§6) The experiment was carried out essentially as described by Knecht et al. [Knecht W, Munch-Petersen B and Piskur J: Identification of residues involved in the specificity and regulation of the highly efficient multisubstrate deoxyribonucleoside kinase from Drosophila melanogaster; J. Mol. Biol. 2000 301 827-837]. Briefly, overnight cultures of transformed KY895 were diluted 200-filed in 10% glyercol and 2 μl drops of the dilutions were spotted on M9 minimal medium plates [Ausubel F, Brent R, Kingston R E, Moore D D, Seidman J G, Smith J A & Struhl K (Eds.): Short protocols in molecular biology; 3rd edition (1995) pp. 1-2, Wiley, USA] supplemented with 0.2% glucose, 40 μg/ml isoleucine, 40 μg/ml valine, 100 μg/ml ampicillin and with or without nucleoside analogs. Growth was inspected visually after 24 hours of incubation at 37° C.

[3] = tested on: KY895 cells transformed with pGEX-2T-TOM-ΔNdCK/dGKΔC; assay: LD100 for growth of transformed KY895 on nucleoside analog plates, pGEX-2T-TOM-ΔNdCK/dGKΔC; type: cell-based, E. coli; conditions: transformant pGEX-2T-TOM-ΔNdCK/dGKΔC; M9 plates, 24 hours at 37° C.
Protocol: as §5, §6

[4] = tested on: breast MCF-7 cells transduced with PZG190 (AtdCGK); assay: Cell proliferation assay - cytotoxicity (XTT), MCF-7 transduced with PZG190; type: cell-based, Human
Protocol: (§7) Two constructs were obtained: AtdCGK (PZG190) and TomdCGK (PZG193). LCXSN alone was used as a control.
(§8) The virus containing medium was subsequently used to transduce the cancer cell lines with a MOI of 5.
(§9) Human breast MCF-7 (ATCC HTB-22) and Glioblastoma U-118-MG (ATCC HTB-15) cancer cells were purchased from the American Type Culture Collection. Cells were cultured in RPMI, E-MEM or D-MEM (Cambrex, Bio Whittaker Cat. No. 12-115-F, 12-611 and 12-741-F) with 10% (v/v) Australian originated fetal calf serum (Cambrex, Bio Whittaker Cat. No. 12-611) and 1 ml/l of Gentamicin (Cambrex, Bio Whittaker Cat. No. 17-518). Cells were grown at 37° C. in a humidified incubator with a gas phase of 5% CO2. […]
(§10) Cells were plated at densities range of 1.500-3.500 cells/well in 96-well plates coated with Poly-L-lysine (Sigma Cat. No. P6282) Gemcitabine (obtained from Orifarm A/S—DK) was added after 24 hours of incubation at 37° C., 5% CO2, and the medium containing the nucleoside analog. […] The IC50 value of the investigated drug/compound was calculated as the mean of these experiments using SigmaPlot®) (SPSS Science, Dyrberg Traiding—DK).
as §3, §4

[5] = tested on: KY895 cells transformed with pGEX-2T-TOM-ΔNdCK/dGK; assay: LD100 for growth of transformed KY895 on nucleoside analog plates, pGEX-2T-TOM-ΔNdCK/dGK; type: cell-based, E. coli
Protocol: as §5, §6

[6] = tested on: Glioblastoma U-118-MG cells transduced with PZG190 (AtdCGK); assay: Cell proliferation assay - cytotoxicity (XTT), U-118-MG transduced with PZG190; type: cell-based; conditions: Homo sapiens; U-118-MG PZG190; 96-120 hours of drug exposure
Protocol: as §7, §8, §9, §10, §3, §4

[7] = tested on: KY895 cells transformed with pGEX-2T-TOM-dCK/dGKΔC; assay: LD100 for growth of transformed KY895 on nucleoside analog plates, pGEX-2T-TOM-dCK/dGKΔC; type: cell-based, E. coli; conditions: transformant pGEX-2T-TOM-dCK/dGKΔC; M9 plates, 24 hours at 37° C.
Protocol: as §5, §6

[8] = tested on: KY895 cells transformed with pGEX-2T-AT-dCK/dGK; assay: LD100 for growth of transformed KY895 on nucleoside analog plates, pGEX-2T-AT-dCK/dGK; type: cell-based, E. coli
Protocol: as §5, §6

[9] = tested on: KY895 cells transformed with pGEX-2T; assay: LD100 for growth of transformed KY895 on nucleoside analog plates, pGEX-2T; type: cell-based, E. coli; conditions: transformant pGEX-2T; M9 plates, 24 hours at 37° C.
Protocol: as §5, §6

[10] = tested on: breast MCF-7 cells transduced with PZG193 (TomdCGK); assay: Cell proliferation assay - cytotoxicity (XTT), MCF-7 transduced with PZG193; type: cell-based, Human
Protocol: as §7, §8, §9, §10, §3, §4

[11] = tested on: cells transduced with the pLCXSN vector alone; assay: Cell proliferation assay - cytotoxicity (XTT), cells transduced with pLCXSN vector alone; type: cell-based, Human; conditions: pLCXSN vector alone versus parental
Protocol: as §7, §8, §9, §10, §3, §4

[12] = tested on: KY895 cells transformed with pGEX-2T-TOM-dCK/dGK; assay: LD100 for growth of transformed KY895 on nucleoside analog plates, pGEX-2T-TOM-dCK/dGK; type: cell-based, E. coli
Protocol: as §5, §6

[13] = tested on: Glioblastoma U-118-MG cells, parental; assay: Cell proliferation assay - cytotoxicity (XTT), U-118-MG parental; type: cell-based; conditions: Homo sapiens, 96-120 hours of drug exposure
Protocol: as §1, §2, §3, §4

[14] = tested on: N-terminally deleted tomato dNK enzyme (TOM-ΔNdCK/dGK); assay: Deoxyribonucleoside kinase activity in extract of KY895 transformed with pGEX-2T-TOM-ΔNdCK/dGK; type: biochemical, Lycopersicum esculentum; conditions: for ability to phosphorylate the deoxyribonucleoside (in words): pGEX-2T-TOM-ΔNdCK/dGK
Protocol: (§11) The E. coli strain KY895 (F^−, tdk-1, ilv) [Knecht W, Munch-Petersen B and Piskur J: Identification of residues involved in the specificity and regulation of the highly efficient multisubstrate deoxyribonucleoside kinase from Drosophila melanogaster; J. Mol. Biol. 2000 301 827-837] was transformed by various expression plasmids using standard techniques. Transformed KY895 strains were grown to an OD600 nm of 0.5-0.6 in LB/Ampicillin (100 μg/ml) medium at 37° C., and protein expression was induced by addition of 100 μM IPTG. The cells were further grown for 4 hours at 25° C. and subsequently harvested by centrifugation.
(§12) Pellets were stored at −80° C. until activity testing. Pellets were submitted to brief sonification in extraction buffer (50 mM Tris/HCl pH 7.5, 1 mM DTT, 10% (v/v) glycerol, 1% (v/v) Triton X-100, protease inhibitor cocktail (Complete™ from Roche Diagnostics).
(§13) Deoxyribonucleoside kinase activities were determined in the KY895 extracts by initial velocity measurements based on four time samples by the DE-81 filter paper assay using tritium-labelled nucleoside substrates. 4 to 20 μg extracts were used in the assays. The assay was done as described by Munch-Petersen et al. [Munch-Petersen, B., Knecht, W, Lenz, C., Sondergaard, L. & Piskur, J: Functional expression of a multisubstrate deoxyribonucleoside kinase from Drosophila melanogaster and its C-terminal deletion mutants; J. Biol. Chem. 2000 275 6673-6679].
(§14) The protein concentration was determined according to Bradford with BSA as standard protein [Bradford M M: A rapid and sensitive method for the quantitation of microgram quantities of protein utilizing the principle of protein-dye binding; Anal. Biochem. 1976 72 248-254]. SDS-PAGE was done according to the procedure of Laemmli [Laemmli U K: Cleavage of structural proteins during the assembly of the head of bacteriophage T4; Nature 1970 227 680-685], and proteins were visualized by Coomassie staining to verify recombinant protein expression.
(§15) The four natural deoxyribonucleosides were tested at a fixed concentration of 100 μM. The highest specific activity in each extract was set to 100%.

[15] = tested on: C-terminally deleted tomato dNK enzyme (TOM-dCK/dGKΔC); assay: Deoxyribonucleoside kinase activity in extract of KY895 transformed with pGEX-2T-TOM-dCK/dGKΔC; type: biochemical, Lycopersicum esculentum; conditions: for Deoxyribonucleoside kinase activity (relative): highest specific activity in extract = 100%
Protocol: as §11, §12, §13, §14, §15

[16] = tested on: Arabidopsis thaliana dNK enzyme (AT-dCK/dGK); assay: Deoxyribonucleoside kinase activity in extract of KY895 transformed with pGEX-2T-AT-dCK/dGK; type: biochemical; conditions: for ability to phosphorylate the deoxyribonucleoside (in words): pGEX-2T-AT-dCK/dGK
Protocol: (§16) Transformed KY895 strains were grown to an OD600 nm of 0.5-0.6 in LB/Ampicillin (100 μg/ml) medium at 37° C., and protein expression was induced by addition of 100 μM IPTG. The cells were further grown for 4 hours at 25° C. and subsequently harvested by centrifugation.
as §12
(§17) Deoxyribonucleoside kinase activities were determined in the KY895 extracts by initial velocity measurements based on four time samples by the DE-81 filter paper assay using tritium-labelled nucleoside substrates. 4 to 20 μg extracts were used in the assays.
as §15

[17] = tested on: tomato dNK enzyme (TOM-dCK/dGK); assay: Deoxyribonucleoside kinase activity in extract of KY895 transformed with pGEX-2T-TOM-dCK/dGK; type: biochemical, Lycopersicum esculentum; conditions: for ability to phosphorylate the deoxyribonucleoside (in words): pGEX-2T-TOM-dCK/dGK
Protocol: as §16, §12, §17, §15

[18] = extract of pGEX-2T-TOM-dCK/dGKΔC transformant, substrate 100 μM

Nc1ccn([C@@H]2O[C@H](CO)[C@@H](O)C2(F)F)c(=O)n1 [dFdC, 2′,2′-difluorodeoxycytidine]
IC50 [1]: 3120 nM
LD100 for growth of transformed KY895 cells [2]: 100 µM
LD100 for growth of transformed KY895 cells [3]: 100 µM
IC50 ([4]; Homo sapiens, MCF7, MCF-7 PZG190, 96-120 hours of drug exposure): 500 nM
Sensitivity factor ([4]; MCF-7 PZG190 compared to the parental cell line): 6-fold
killed at fold lower concentrations than cells transformed with pGEX-2T-HSV-TK or pGEX-2T ([5]; KY895 with expression plasmid for TOM-ΔNdCK/dGK): 10 fold
LD100 for growth of transformed KY895 cells ([5]; transformant pGEX-2T-TOM-ΔNdCK/dGK, M9 plates, 24 hours at 37° C.): 10 µM
IC50 [6]: 0.3 nM
LD100 for growth of transformed KY895 cells [7]: 100 µM
LD100 fold lower than that of HSV1-TK ([8]; KY895 with AT-dCK/dGK versus HSV1-TK): 10000 fold
LD100 for growth of transformed KY895 cells ([8]; transformant pGEX-2T-AT-dCK/dGK, M9 plates, 24 hours at 37° C.): 0.01 µM
LD100 for growth of transformed KY895 cells [9]: 100 µM
IC50 ([10]; Homo sapiens, MCF7, MCF-7 PZG193, 96-120 hours of drug exposure): 402 nM
Sensitivity factor ([10]; MCF-7 PZG193 compared to the parental cell line): 8-fold
difference in sensitivity between the parental cell line and cells transduced with the pLCXSN vector alone [11]: less than 1 fold
killed at fold lower concentrations than cells transformed with pGEX-2T-HSV-TK or pGEX-2T ([12]; KY895 with expression plasmid for TOM-dCK/dGK): 10 fold
LD100 for growth of transformed KY895 cells ([12]; transformant pGEX-2T-TOM-dCK/dGK, M9 plates, 24 hours at 37° C.): 10 µM
IC50 [13]: 6.2 nM

Nc1nc2c(ncn2[C@H]2C[C@H](O)[C@@H](CO)O2)c(=O)[nH]1 [dGuo, deoxyguanosine]
specific activity corresponding to 100% ([14]; extract of pGEX-2T-TOM-ΔNdCK/dGK transformant, substrate 100 μM): (0.32) mU/mg
Deoxyribonucleoside kinase activity (relative) ([14]; extract of pGEX-2T-TOM-ΔNdCK/dGK transformant, substrate 100 μM, highest specific activity in extract = 100%): 100%
ability to phosphorylate the deoxyribonucleoside (in words) [14]: able to phosphorylate
Deoxyribonucleoside kinase activity (relative) [15, 18]: 74%
Deoxyribonucleoside kinase activity (relative) ([16]; extract of pGEX-2T-AT-dCK/dGK transformant, substrate 100 μM, highest specific activity in extract = 100%): 91%
ability to phosphorylate the deoxyribonucleoside (in words) [16]: able to phosphorylate
specific activity corresponding to 100% ([17]; extract of pGEX-2T-TOM-dCK/dGK transformant, substrate 100 μM): (3.3) mU/mg
Deoxyribonucleoside kinase activity (relative) ([17]; extract of pGEX-2T-TOM-dCK/dGK transformant, substrate 100 μM, highest specific activity in extract = 100%): 100%
ability to phosphorylate the deoxyribonucleoside (in words) [17]: able to phosphorylate

Cc1cn([C@H]2C[C@H](O)[C@@H](CO)O2)c(=O)[nH]c1=O [dThd, thymidine]
ability to phosphorylate the deoxyribonucleoside (in words) [14]: not
specific activity corresponding to 100% [15, 18]: (0.27) mU/mg
Deoxyribonucleoside kinase activity (relative) [15, 18]: 100%
substrate conversion (in words) ([15]; pGEX-2T-TOM-dCK/dGKΔC): fastest converted substrate
ability to phosphorylate the deoxyribonucleoside (in words) [16]: not
ability to phosphorylate the deoxyribonucleoside (in words) [17]: not
